The supplement of paper PMC7645387
± gives the standard deviation of the averaged measurements.

Tests used:
Experiment in all cases: cell viability relative to DMSO control; higher = less growth inhibition
Conditions in all cases: treatment time: 6 days
MKL-1 = tested on: MKL-1
Protocol: (§1)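 MCC cell lines (PeTa, MKL-1, MS-1, WaGa) and HDFB fibroblasts were treated for 6 days with serial dilutions (1e-11 to 1e-4 M) of single compounds in quadruplicate. Viability was read by CellTiter-Glo 2.0 and expressed as % of DMSO control.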

PeTa = tested on: PeTa
Protocol: as §1

HDFB = tested on: HDFB
Protocol: as §1

| Compound | cell viability (MKL-1; log10 concentration (M): -4) [%] | cell viability (MKL-1; log10 concentration (M): -5) [%] | cell viability (MKL-1; log10 concentration (M): -6) [%] | cell viability (MKL-1; log10 concentration (M): -7) [%] | cell viability (MKL-1; log10 concentration (M): -8) [%] | cell viability (MKL-1; log10 concentration (M): -9) [%] | cell viability (MKL-1; log10 concentration (M): -10) [%] | cell viability (MKL-1; log10 concentration (M): -11) [%] | cell viability (PeTa; log10 concentration (M): -4) [%] | cell viability (PeTa; log10 concentration (M): -5) [%] | cell viability (PeTa; log10 concentration (M): -6) [%] | cell viability (PeTa; log10 concentration (M): -7) [%] | cell viability (PeTa; log10 concentration (M): -8) [%] | cell viability (PeTa; log10 concentration (M): -9) [%] | cell viability (PeTa; log10 concentration (M): -10) [%] | cell viability (PeTa; log10 concentration (M): -11) [%] | cell viability (HDFB; log10 concentration (M): -4) [%] | cell viability (HDFB; log10 concentration (M): -5) [%] | cell viability (HDFB; log10 concentration (M): -6) [%] | cell viability (HDFB; log10 concentration (M): -7) [%] | cell viability (HDFB; log10 concentration (M): -8) [%] | cell viability (HDFB; log10 concentration (M): -9) [%] | cell viability (HDFB; log10 concentration (M): -10) [%] | cell viability (HDFB; log10 concentration (M): -11) [%] |
| --- | --- | --- | --- | --- | --- | --- | --- | --- | --- | --- | --- | --- | --- | --- | --- | --- | --- | --- | --- | --- | --- | --- | --- | --- |
| Cc1sc2c(c1C)C(c1ccc(Cl)cc1)=N[C@@H](CC(=O)OC(C)(C)C)c1nnc(C)n1-2 [(+)-JQ1] | 0.00849 ± 0.0057 | 0.0389 ± 0.0064 | 0.0944 ± 0.014 | 20.7 ± 1.3 | 66.8 ± 11 | 89.2 ± 19 | 94.1 ± 1.5 | 93.9 ± 6.4 | 0.0148 ± 0.0097 | 3.47 ± 0.2 | 7.04 ± 0.4 | 21.7 ± 2.3 | 94.3 ± 7.1 | 96.7 ± 12 | 87.4 ± 18 | 100 ± 2.9 | 0.0326 ± 0.017 | 31.7 ± 3.8 | 52 ± 8.2 | 78.7 ± 1.5 | 94.8 ± 1.7 | 106 ± 11 | 110 ± 14 | 99 ± 7.9 |
| Cc1cc2c(cc1N1C(=O)c3cccc4c(CCCO)ccc(c34)C1=O)n(C)c(=O)n2C [BAY299] | 0.0297 ± 0.015 | 0.557 ± 0.05 | 20.6 ± 2.8 | 102 ± 15 | 88.4 ± 4.3 | 111 ± 13 | 101 ± 15 | 92.3 ± 18 | 0.141 ± 0.02 | 2.01 ± 0.19 | 37.3 ± 4.9 | 88.5 ± 20 | 92.1 ± 19 | 94.4 ± 17 | 103 ± 18 | 95.8 ± 12 | 31.2 ± 1.8 | 78.5 ± 3.7 | 74.1 ± 2.2 | 92.1 ± 3.5 | 100 ± 12 | 97.5 ± 6.5 | 100 ± 9.7 | 99.3 ± 4 |
| Nc1ccccc1NC(=O)c1ccc(CNC(=O)OCc2cccnc2)cc1 [Entinostat] | 0.0104 ± 0.0078 | 0.0238 ± 0.013 | 0.0511 ± 0.011 | 75 ± 2.7 | 102 ± 2.8 | 102.6 ± 0.8 | 101 ± 2.3 | 102 ± 1.3 | 0.0531 ± 0.016 | 0.0605 ± 0.051 | 0.0805 ± 0.058 | 50.9 ± 3.8 | 94.9 ± 2.8 | 98.1 ± 5.3 | 102 ± 2 | 108 ± 4.7 | 0.192 ± 0.057 | 11 ± 1.8 | 33.8 ± 3.8 | 94.1 ± 3.7 | 102 ± 2.1 | 102 ± 2.9 | 104 ± 4.2 | 104 ± 5.3 |
